In US12257214B2, “Compositions and methods comprising deoxy-pentitols” (The Charlotte Mecklenburg Hospital Authority, priority 2021, dated 2025):

Tests used:
Assay type in all cases: cell-based
[1] = test system: breast cancer T47D cells; test: T47D cell growth
Method: (§1) Less than 50% of cells and 10% of cells were detected with the treatment of 10 mM and 50 mM 2-deoxyribitol, respectively.

[2] = test system: PC-3; test: ATPlite cell IC50 screening, PC-3; conditions: Homo sapiens; PC-3, Prostate carcinoma; ATPlite luminescence
Method: (§2) In brief, the cells were cultures in relevant medium and treated with a range of 9 doses of 2-deoxyribitol, from 10 mM, 5 mM, 2.5 mM, 1.25 mM, 0.62 mM, 0.31 mM, 0.08 mM, and 0.04 mM. Cells were diluted in the corresponding ATCC recommended medium and dispensed in a 384-well plate, depending on the cell line used, at a density of 100-6400 cells per well in 45 μl medium. For each used cell line the optimal cell density was used. The margins of the plate were filled with phosphate-buffered saline. Plated cells were incubated in a humidified atmosphere of 5% CO2 at 37° C. After 24 hours, 5 μl of compound dilution was added and plates were further incubated. At the end of experiment (t=end), 24 μl of ATPlite 1Step™ (PerkinElmer) solution was added to each well, and subsequently shaken for 2 minutes. After 10 minutes of incubation in the dark, the luminescence was recorded on an Envision multimode reader (PerkinElmer). IC50 was determined in comparison with the control samples. The cell lines tested and their corresponding disease model is indicated the left-most and middle columns, respectively. IC50 values are given in μM values in the right-most column. This screening was performed of a list of cancer cells to establish IC50 values for each of the cancer cell lines. This screening provides evidence for the potential of 2DR to treat many cancer types.

[3] = test system: DB; test: ATPlite cell IC50 screening, DB; conditions: Homo sapiens, Diffuse large B-cell lymphoma, ATPlite luminescence
Method: as §2

[4] = test system: RT4; test: ATPlite cell IC50 screening, RT4; conditions: Homo sapiens, RT-4; RT4, Bladder carcinoma; ATPlite luminescence
Method: as §2

[5] = test system: 5637; test: ATPlite cell IC50 screening, 5637; conditions: 5637, Bladder carcinoma; ATPlite luminescence
Method: as §2

[6] = test system: SJCRH30; test: ATPlite cell IC50 screening, SJCRH30; conditions: SJCRH30, Alveolar rhabdomyosarcoma; ATPlite luminescence
Method: as §2

[7] = test system: BT-549; test: ATPlite cell IC50 screening, BT-549; conditions: Homo sapiens; BT-549, Invasive ductal carcinoma; ATPlite luminescence
Method: as §2

[8] = test system: KU812; test: ATPlite cell IC50 screening, KU812; conditions: Homo sapiens; KU812, Chronic myelogenous leukemia; ATPlite luminescence
Method: as §2

[9] = test system: LS 174T; test: ATPlite cell IC50 screening, LS 174T; conditions: Homo sapiens, LS174T, Colon adenocarcinoma, ATPlite luminescence
Method: as §2

[10] = test system: HCT-15; test: ATPlite cell IC50 screening, HCT-15; conditions: Homo sapiens; HCT-15, Colon adenocarcinoma; ATPlite luminescence
Method: as §2

[11] = test system: HL-60; test: ATPlite cell IC50 screening, HL-60; conditions: Homo sapiens; HL-60, Adult acute myeloid leukemia; ATPlite luminescence
Method: as §2

[12] = test system: MDA231 cells (triple negative breast cancer cell); test: MDA231 cell growth
Method: (§3) However, this effect was not related to the enhanced expression of glycosylation of α-DG.
as §1

[13] = test system: MCF7 cells; test: Mammosphere formation (FIG. 4)
Method: Cells were also treated with Vitamin C (VitC) at a concentration of 50 μM for 5 days (5d) and then returned to normal medium (NM) for 6 days (d6), without (lower left panel) or with 2-deoxyribitol (Drug, lower right panel). The formation of cancer mammospheres, considered to be cancer stem cell-rich population, can be seen in culture without Drug treatment, and with Vitamin C treatment only. Drug treatment greatly reduces to eliminates the formation of cancer mammospheres.
To examine mammosphere formation, MCF7 cells were grown for 11 days with or without 2-deoxyribitol (drug) treatment (FIG. 4, top panels). In addition, MCF7 cells were treated with Vitamin C at the concentration of 50 μM for 5 days and then returned to normal medium (“NM”) for 6 days (FIG. 4, lower panels).

[14] = test system: A-498; test: ATPlite cell IC50 screening, A-498; conditions: Homo sapiens, A498; A-498, Renal cell carcinoma; ATPlite luminescence
Method: as §2

[15] = test system: SU-DHL-6; test: ATPlite cell IC50 screening, SU-DHL-6; conditions: Homo sapiens; SU-DHL-6, Diffuse large B-cell lymphoma; ATPlite luminescence
Method: as §2

[16] = test system: HT-1080; test: ATPlite cell IC50 screening, HT-1080; conditions: Homo sapiens; HT-1080, Fibrosarcoma; ATPlite luminescence
Method: as §2

[17] = test system: breast cancer cell line MCF7; test: MCF7 cell culture, growth and death (FIG. 2); conditions: 3 day treatment
Method: From left-top-to-bottom: Control, 0.4 mM Drug, 2 mM rib, and 10 mM Drug; From right-top-to-bottom: 0.4 mM rib; 2 mM Drug; 10 mM rib; and 50 mM Drug.
as §3

[18] = test system: SW948; test: ATPlite cell IC50 screening, SW948; conditions: Homo sapiens; SW948, Colon adenocarcinoma; ATPlite luminescence
Method: as §2

[19] = test system: RL; test: ATPlite cell IC50 screening, RL; conditions: Homo sapiens, Diffuse large B-cell lymphoma, ATPlite luminescence
Method: as §2

[20] = test system: NCI-H460; test: ATPlite cell IC50 screening, NCI-H460; conditions: Homo sapiens; NCI-H460, Large cell lung carcinoma; ATPlite luminescence
Method: as §2

[21] = test system: alpha dystroglycan (α-DG); test: Glycosylation of alpha dystroglycan
Source text: This invention applies a synthetic molecule, 2-deoxyribitol, to treat cancer for growth inhibition and cancer cell killing. Naturally-occurring ribitol is a metabolite, but its metabolic pathway has not been clearly defined. Recently, ribitol has been identified as a precursor of CDP-ribitol, the substrate used for the synthesis of sugar modification of a membrane protein, alpha dystroglycan (α-DG). […] The loss or reduced expression of glycosylation of α-DG has been linked to cancer progression and metastasis in breast and other cancers in clinics, and enhanced glycosylation of α-DG may inhibit cancer cell growth and tumorigenicity. This study screened several different pentose and pentitol molecules including ribose, 2-deoxyribose, ribulose, 2-deoxyribitol, xylose, and xylitol to evaluate these sugar molecules for the effects of enhancing glycosylation of α-DG and inhibiting cancer cell growth/tumorigenicity.

[22] = test system: SW837; test: ATPlite cell IC50 screening, SW837; conditions: Homo sapiens; SW837, Rectal adenocarcinoma; ATPlite luminescence
Method: as §2

OCC[C@H](O)[C@H](O)CO [2-deoxyribitol] was tested, and the inhibiting cell growth [1] was “had an effect on inhibiting cell growth”, the IC50 [2] was 3.68 mM and the IC50 [3] was 4.08 mM. The IC50 [4] was over 10 mM, the IC50 [5] was 9.33 mM and the IC50 [6] was 4.46 mM. The IC50 [7] was 4.27 mM, the IC50 [8] was 4.3 mM and the IC50 [9] was 2.52 mM. The IC50 [10] was 7.7 mM, the IC50 [11] was 7.46 mM and the “inhibitory effect as seen in MCF7 (growth / anchorage independent growth)” value ([12]; MDA231, concentrations lower than 10 mM) was “clearly demonstrated”. For the same compound, the inhibiting cell growth ([12]; MDA231 cells) was “had an effect on inhibiting cell growth”, the “number of mammospheres after Vitamin C pre-treatment” value ([13]; MCF7, Vitamin C 50 μM 5 days, then 6 day treatment with 2-deoxyribitol) was “decreased dramatically” and the formation of mammospheres ([13]; MCF7 grown 11 days, 5 mM) was “no spheres were seen”. It also gave an IC50 [14] of 8.73 mM, an IC50 [15] of 4.06 mM and an IC50 [16] of 4.39 mM. The “effect on cell growth, death and morphology” value ([17]; MCF7, 0.4-50 mM) was “dose-dependent inhibition in cell growth and increase in cell death”, the “cells survive compared to the control” value ([17]; MCF7, dose of 10 mM or higher) was “about 10%” and the IC50 [18] was 2.53 mM. The IC50 [19] was 3.4 mM, the IC50 [20] was 3.17 mM and the “glycosylation of α-DG” value [21] was “did not enhance glycosylation of α-DG”. It also gave an IC50 [22] of 9.79 mM.
